The values that follow are results of earlier work, collected in US8431577B2, “Crystalline form of eszopiclone, composition, preparation and uses thereof” (Tianjin Tasly Group Co., Ltd., priority 2008, dated 2013).

The conditions of this data set: comparative acute toxicity research; cited from earlier work.

As to `CN1CCN(C(=O)O[C@H]2c3nccnc3C(=O)N2c2ccc(Cl)cn2)CC1` [S-zopiclone, (+)-(S)-(4-methylpiperazine-1-carboxylate)(6-(5-chloropyridinyl-2-yl)-7-carbonyl-6,7-dihydro-5-H-pyrrolo[3,4-b]pyrazin-5-yl ester)], the “acute toxicity compared with racemic zopiclone” value is on record as “low toxicity than that of the racemic zopiclone”.
